The text below walks through data of patent US20250009745A1, “CDK INHIBITOR” (SHANGHAI QILU PHARMACEUTICAL RESEARCH AND DEVELOPMENT …, priority 2021, published 2025).

In one experiment the target is T1, CDK4 (Homo sapiens, UniProt P11802).
T1 construct: purchased Carna Company
As to the kind of experiment: CDK enzymology experiment in vitro, capillary mobility shift assay (MSA). The experiment is classed as biochemical. To be noted: read-out: CDK4 (nM) inhibitory IC50. On the procedure: (§1) CDK1/CDK2/CDK4/CDK6/CDK7/CDK9 were purchased from Carna Company; Carliper substrate CTD3/substrate 18/substrate 8 were purchased from Gil Biochemical Company; Dinaciclib/Palbociclib were purchased from Selleckchem Company; DMSO was purchased from Sigma Company; 384-well plates were purchased from Corning Company.
(§2) • (1) Preparation of 1×Kinase buffer. • (2) Preparation of compound concentration gradient: Test concentration of the test compound was started at 1 μM, 10 μM or 30 μM, 3-fold dilution, 10 concentrations, detected in duplicate. The test compound was diluted to a 100-fold final concentration with 100% DMSO solution in a 384 source plate. Liquid handler Echo 550 was used to transfer 250 nL of 100-fold final concentration of the compound to the target plate 384-well plate. […] The 384-well plate was centrifuged at 1000 rpm for 30 seconds, and shaken to mix uniformly. • (10) The conversion rate was read with Caliper EZ Reader.
(§3) Where, conversion %_sample is the readings of conversion rate of the sample; conversion %_min: the average value of negative control wells, representing the readings of conversion rate of wells without enzyme activity; conversion %_max: the average value of positive control wells, representing the readings of conversion rate of wells without compound inhibition.
(§4) Taking the log value of the concentration as the X-axis, and the percentage inhibition rate as the Y-axis, the dose-effect curve was fitted using the log(inhibitor) vs. response—Variable slope of the analysis software GraphPad Prism 5 so as to obtain the IC50 value of each compound on the enzyme activity.
(§5) Y=Bottom+(Top−Bottom)/(1+10^((Log IC50−X)*HillSlope)). Calculation formula: […]

Another experiment concerns the target T2, CDK2 (Homo sapiens, UniProt P24941).
T2 construct: purchased Carna Company
The experiment is described as above. The experiment is classed as biochemical. The following applies: read-out: CDK2 (nM) inhibitory IC50. On the procedure:
as §1, §2, §3, §4, §5

Where only a bound is given, the exact number is not on record here.

T1 sequence (P11802 whole entry): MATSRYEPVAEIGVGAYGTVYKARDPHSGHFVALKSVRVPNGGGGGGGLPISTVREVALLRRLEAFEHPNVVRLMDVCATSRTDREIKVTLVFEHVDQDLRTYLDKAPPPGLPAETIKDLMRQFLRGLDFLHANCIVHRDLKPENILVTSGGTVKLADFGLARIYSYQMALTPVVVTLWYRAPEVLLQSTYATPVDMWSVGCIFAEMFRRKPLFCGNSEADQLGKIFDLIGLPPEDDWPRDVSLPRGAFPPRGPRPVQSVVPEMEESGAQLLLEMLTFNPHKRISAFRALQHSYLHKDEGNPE
T1 sequence (P30281 whole entry partner): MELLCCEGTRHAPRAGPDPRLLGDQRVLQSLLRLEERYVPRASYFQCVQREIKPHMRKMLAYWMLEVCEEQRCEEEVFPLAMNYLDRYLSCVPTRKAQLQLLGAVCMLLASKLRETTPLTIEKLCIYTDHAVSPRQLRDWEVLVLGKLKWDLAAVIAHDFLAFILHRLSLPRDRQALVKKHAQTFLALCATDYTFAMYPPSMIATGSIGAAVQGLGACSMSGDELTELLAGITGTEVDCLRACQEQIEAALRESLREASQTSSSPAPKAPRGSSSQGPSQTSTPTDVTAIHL

Regarding `Cn1cc(S(=O)(=O)N2CCC(Nc3ncc(C#N)c(O[C@H]4CC[C@@H](O)C4)n3)CC2)cn1` (relative stereo) [Compound 58], the figures for the IC50 on CDK4 and at CDK2 were 10 to 50 nM and 0.5 to 2.5 nM, respectively.
Turning to `CC(C)(O)c1ccc(S(=O)(=O)N2CCC(Nc3ncc(C#N)c(NC4CCCC4)n3)CC2)cc1` [Example 24, 4-(Cyclopentylamino)-2-((1-((4-(2-hydroxypropan-2-yl)phenyl)sulfonyl)piperidin-4-yl)amino)pyrimidine-5-carbonitrile], the results for the IC50 at CDK4 and on CDK2 were 2.5 to 10 nM and 0.5 to 2.5 nM, respectively.
Turning to `Cn1cc(S(=O)(=O)N2CCC(Nc3ncc(C#N)c(N[C@H]4CC[C@H](O)C4)n3)CC2)cn1` (single isomer, unassigned) [Compound 52], the IC50 (usually the midpoint of a concentration-inhibition curve) at CDK4 fell in the range of 10 to 50 nM; at CDK2, 2.5 to 10 nM.
Take `Cn1cc(S(=O)(=O)N2CCC(Nc3ncc(C(F)(F)F)c(O[C@@H]4CCOC4)n3)CC2)cn1` [Compound 88]: the IC50 at CDK4 fell in the range of 10 to 50 nM; on CDK2, 0.5 to 2.5 nM.
Take `N#Cc1cnc(NC2CCN(S(=O)(=O)c3ccccn3)CC2)nc1NC1CCCC1` [Compound 36]: the IC50 at CDK4 and at CDK2 was 2.5 to 10 nM in each case.
In the case of `Cn1cc(S(=O)(=O)N2CCC(Nc3ncc(C#N)c(NC4COC4)n3)CC2)cn1` [Compound 80], the IC50 lay in the range of 100 to 1000 nM at CDK4 and 2.5 to 10 nM on CDK2.
The like results for `Cn1cc(S(=O)(=O)N2CCC(Nc3ncc(C#N)c(S(=O)(=O)C4CCCC4)n3)CC2)cn1` [Compound 97] were, in that order, 10 to 50 nM and 0.5 to 2.5 nM.
For the compound `Cn1cc(S(=O)(=O)N2CCC(Nc3ncc(C#N)c(O[C@@H]4CC[C@@H](O)C4)n3)CC2)cn1` (single isomer, unassigned) [Compound 57], the figures for the IC50 on CDK4 and on CDK2 were 10 to 50 nM and 2.5 to 10 nM, respectively.
On to `Cn1cc(S(=O)(=O)N2CCC(Nc3ncc(C(F)(F)F)c(O[C@@H]4COC[C@@H]4F)n3)CC2)cn1` [Compound 124], for which the values for the 50% inhibitory concentration (IC50) at CDK4 and at CDK2 were 100 to 1000 nM and 2.5 to 10 nM, respectively.
Take `Cn1cc(S(=O)(=O)N2CCC(Nc3ncc(C#N)c(NC4CCCCC4)n3)CC2)cn1` [Compound 79]: the IC50 at CDK4 was in the range of 10 to 50 nM; at CDK2, 2.5 to 10 nM.
The like results for `Cn1cc(-c2ccc(S(=O)(=O)N3CCC(Nc4ncc(C#N)c(N[C@H]5CCC[C@@H]5O)n4)CC3)cc2)cn1` [Compound 59] were, in that order, 2.5 to 10 nM and 2.5 to 10 nM.
Take `Cn1cc(-c2ccc(S(=O)(=O)N3CCC(Nc4ncc(C#N)c(N[C@@H]5CC[C@@H](O)C5)n4)CC3)cc2)cn1` (single isomer, unassigned) [Compound 63]: the IC50 lay within 2.5 to 10 nM on CDK4 and 0.5 to 2.5 nM on CDK2.
As for `Cn1cc(S(=O)(=O)N2CCC(Nc3ncc(C#N)c(O[C@H]4CCOC4)n3)CC2)cn1` [Compound 64], the IC50 on CDK4 is 10 to 50 nM; on CDK2, 2.5 to 10 nM.
For `Cn1cc(S(=O)(=O)N2CCC(Nc3ncc(C#N)c(N[C@@H]4CCC[C@@]4(C)O)n3)CC2)cn1` (racemic) [Example 19], the values for the IC50 on CDK4 and at CDK2 were 10 to 50 nM and 2.5 to 10 nM, respectively.
As for `CN1CC[C@H](Oc2nc(NC3CCN(S(=O)(=O)c4cnn(C)c4)CC3)ncc2C#N)C1` [Compound 74], the IC50 on CDK4 was in the range of 50 to 100 nM; on CDK2 it was 10 to 50 nM.
Take `Cn1cc(S(=O)(=O)N2CC[C@@H](Nc3ncc(C(F)(F)F)c(O[C@H]4CCOC4)n3)[C@@H](F)C2)cn1` [Compound 128]: the results for the IC50 at CDK4 and at CDK2 were 100 to 1000 nM and 10 to 50 nM, respectively.
As for `Cn1cc(S(=O)(=O)N2CCC(Nc3ncc(C#N)c(N[C@@H]4CCC[C@@]4(C)O)n3)CC2)cn1` (single isomer, unassigned) [Example 20], the IC50 lay in the range of 100 to 1000 nM at CDK4 and 10 to 50 nM at CDK2.
Take `Cn1cc(S(=O)(=O)N2CCC(Nc3ncc(C#N)c([S+]([O-])C4CCCC4)n3)CC2)cn1` (stereo not drawn) [Compound 98]: the IC50 at CDK4 is 10 to 50 nM; at CDK2, < 0.5 nM.
For `O=S(=O)(c1cnn(C2CCOCC2)c1)N1CCC(Nc2ncc(C(F)(F)F)c(O[C@H]3CCOC3)n2)CC1` [Compound 108], the IC50 on CDK4 lay within 2.5 to 10 nM; on CDK2, 0.5 to 2.5 nM.
Consider `Cn1cc(S(=O)(=O)N2CCC(Nc3ncc(C(F)(F)F)c(O[C@H]4CCOC4)n3)[C@@H](F)C2)cn1` (stereo partly drawn) [Compound 120], for which the IC50 was in the range of 10 to 50 nM on CDK4 and 2.5 to 10 nM at CDK2.
With `C[C@H]1COCCN1c1nc(NC2CCN(S(=O)(=O)c3cnn(C)c3)CC2)ncc1C#N` [Compound 75], the IC50 on CDK4 and on CDK2 was 10 to 50 nM throughout.
`Cn1cc(S(=O)(=O)N2CCC(Nc3ncc(C#N)c(O[C@@H]4CCC[C@@H]4O)n3)CC2)cn1` (relative stereo) [Compound 65]: the IC50 was 10 to 50 nM at CDK4 and 2.5 to 10 nM at CDK2.
As for `N#Cc1cnc(NC2CCN(S(=O)(=O)c3ccc(C4=CCNCC4)cc3)CC2)nc1N[C@@H]1CCC[C@H]1O` [Compound 91], the IC50 at CDK4 lay within 2.5 to 10 nM; at CDK2, 0.5 to 2.5 nM.
For `Cn1cc(S(=O)(=O)N2CC[C@H](Nc3ncc(C(F)(F)F)c(O[C@H]4CCOC4)n3)[C@H](F)C2)cn1` [Compound 127], in that order: 10 to 50 nM and < 0.5 nM.
For `Cn1cc(S(=O)(=O)N2CCC(Nc3ncc(C#N)c(N[C@H]4CC[C@@H](O)C4)n3)CC2)cn1` (single isomer, unassigned) [Example 12], in that order: 10 to 50 nM and 2.5 to 10 nM.
As for `Cn1cc(S(=O)(=O)N2CCC(Nc3ncc(C#N)c(NC4CCCC4(F)F)n3)CC2)cn1` (stereo not drawn) [Compound 37], the IC50 at CDK4 and on CDK2 was 2.5 to 10 nM each time.
On to `Cn1cc(S(=O)(=O)N2CCC(Nc3ncc(C#N)c(N[C@H]4CCC[C@@H]4O)n3)CC2)cn1` [Compound 46], for which the values for the IC50 at CDK4 and on CDK2 were 100 to 1000 nM and 10 to 50 nM, respectively.
In the case of `CN1CCN(Cc2ccc(S(=O)(=O)N3CCC(Nc4ncc(C#N)c(NC5CCCC5)n4)CC3)cc2)CC1` [Example 22, 4-(Cyclopentylamino)-2-((1-((4-((4-methylpiperazin-1-yl)methyl)phenyl)sulfonyl)piperidin-4-yl)amino)pyrimidine-5-carbonitrile], the IC50 fell in the range of 10 to 50 nM on CDK4 and 2.5 to 10 nM at CDK2.
For `Cn1cc(S(=O)(=O)N2CCC(Nc3ncc(C#N)c(N[C@H]4CCC[C@H]4O)n3)CC2)cn1` [Compound 48], the IC50 was in the range of 10 to 50 nM at CDK4 and 2.5 to 10 nM at CDK2.
With `CC(C)(O)Cn1cc(S(=O)(=O)N2CCC(Nc3ncc(C(F)(F)F)c(O[C@H]4CCOC4)n3)CC2)cn1` [Compound 156], the IC50 on CDK4 fell in the range of 2.5 to 10 nM; on CDK2, 0.5 to 2.5 nM.
As to `Cn1cc(S(=O)(=O)N2CCC(Nc3ncc(C#N)c(C=C4CCCC4)n3)CC2)cn1` [Example 9, 4-(Cyclopentylidenemethyl)-2-((1-((1-methyl-1H-pyrazol-4-yl)sulfonyl)piperidin-4-yl)amino)pyrimidine-5-carbonitrile], the IC50 lay within 10 to 50 nM at CDK4 and 0.5 to 2.5 nM at CDK2.
As for `CC(C)S(=O)(=O)N1CCC(Nc2ncc(C#N)c(NC3CCCC3)n2)CC1` [Compound 29], the IC50 on CDK4 and at CDK2 was 10 to 50 nM throughout.
`Cn1cc(-c2ccc(S(=O)(=O)N3CCC(Nc4ncc(C#N)c(NC5(C)CCOC5)n4)CC3)cc2)cn1` (stereo not drawn) [Compound 150]: the IC50 fell in the range of 2.5 to 10 nM on CDK4 and 0.5 to 2.5 nM at CDK2.
In the case of `Cn1cc(S(=O)(=O)N2CCC(Nc3ncc(C#N)c(N[C@@H]4CC[C@@H](O)C4)n3)CC2)cn1` (single isomer, unassigned) [Compound 53], the results for the IC50 on CDK4 and at CDK2 were 10 to 50 nM and 2.5 to 10 nM, respectively.
On to `Cn1cc(S(=O)(=O)N2CCC(Nc3ncc(C(F)(F)F)c(O[C@@H]4COC[C@@H]4O)n3)CC2)cn1` (relative stereo) [Compound 111], for which the IC50 on CDK4 lay in the range of 50 to 100 nM; on CDK2 it was 2.5 to 10 nM.
The like results for `Cn1cc(S(=O)(=O)N2CCC(Nc3ncc(C#N)c(N[C@H]4C[C@@H](O)C4)n3)CC2)cn1` [Compound 77] were, in that order, 10 to 50 nM and 2.5 to 10 nM.
The like results for `Cn1cc(S(=O)(=O)N2CCC(Nc3ncc(C#N)c(O[C@@H]4CCOC4)n3)CC2)cn1` [Compound 89] were, in that order, 50 to 100 nM and 10 to 50 nM.
In the case of `CN1CC[C@@H](Oc2nc(NC3CCN(S(=O)(=O)c4cnn(C)c4)CC3)ncc2C#N)C1` [Compound 73], the IC50 at CDK4 lay within 100 to 1000 nM; on CDK2 it was 50 to 100 nM.
With `Cn1cc(S(=O)(=O)N2CCC(Nc3cc(O[C@H]4CCOC4)c(C#N)cn3)CC2)cn1` [Compound 158], the IC50 on CDK4 lay in the range of 10 to 50 nM; at CDK2 it was 2.5 to 10 nM.
As to `Cn1cc(S(=O)(=O)N2CCC(Nc3ncc(C(F)(F)F)c(OC4CCCC4)n3)CC2)cn1` [Compound 40], the figures for the IC50 on CDK4 and on CDK2 were 2.5 to 10 nM and 0.5 to 2.5 nM, respectively.
Regarding `CN1CCC(S(=O)(=O)N2CCC(Nc3ncc(C#N)c(NC4CCCC4)n3)CC2)CC1` [Compound 85], the IC50 was in the range of 10 to 50 nM on CDK4 and 2.5 to 10 nM on CDK2.
For `Cn1cc(S(=O)(=O)N2CCC(Nc3ncc(C(F)(F)F)c(N[C@@H]4CCC[C@H]4O)n3)CC2)cn1` [Compound 54], the values for the IC50 at CDK4 and on CDK2 were 10 to 50 nM and 0.5 to 2.5 nM, respectively.
